Measurements taken from publication PMC9501172, “Gallic Acid Alkyl Esters: Trypanocidal and Leishmanicidal Activity, and Target Identification via Modeling Studies” (Molecules, 2022).
Values after ≈ are worked out from the molar mass of the structure shown. Like-named read-outs stand apart in the source and are kept apart here.

How the values were obtained:
[1] = tested on: bloodstream forms of T. brucei; test: Trypanocidal activity, resazurin viability assay; type: cell-based, Trypanosoma brucei; conditions: for GI50 / MIC: Trypanosoma brucei; for MIC: concentration at which all cells were killed, determined microscopically
Experimental: (§1) Trypanocidal, leishmanicidal, and cytotoxic activities of gallic acid alkyl esters were determined with bloodstream forms of T. brucei (clone 427-221a), promastigotes of L. major (strain MHOM/IL/81/Friedlin [51]), and human myeloid HL-60 cell, respectively. The viability of cells was evaluated with the vital dye resazurin as previously described with some modifications. Cells were seeded in 96-well plates in a final volume of 200 μL Baltz medium (T. brucei bloodstream forms and HL-60 cells) or Schneider’s insect medium (L. major promastigotes) supplemented with 16.7% and 10% fetal bovine serum, respectively. Test compounds were assayed at tenfold dilutions starting from 100 μM down up to 100 nM in the presence of 0.9% DMSO. Wells containing medium with 0.9% DMSO alone served as controls. The initial cell densities were 1 × 10^4/mL for T. brucei bloodstream forms, 2.5 × 10^5/mL for L. major promastigotes, and 5 × 10^4/mL for HL-60 cells. The cultures were incubated at 37 °C (T. brucei bloodstream forms and HL-60 cells) and 27 °C (L. major promastigotes) in a humidified atmosphere containing 5% CO2. After 24 h of incubation, 20 µL of a 0.5 mM resazurin solution prepared in sterile PBS was added to each well, and the cultures were incubated for another 48 h. Then, the absorbance of each well was read on a BioTek ELx808 microplate reader using a test wavelength of 570 nm and a reference wavelength of 630 nm. The 50% growth inhibition (GI50) value, i.e., the concentration of a compound necessary to reduce the growth rate of cells by 50% compared to the control, was determined by linear interpolation. The minimum inhibitory concentration (MIC) value, i.e., the concentration of a compound at which all cells were killed, was determined microscopically.

[2] = tested on: HL-60 / T. brucei; test: Selectivity: ratio of cytotoxic to trypanocidal activity; type: cell-based, Trypanosoma brucei; conditions: for GI50 Ratio: GI50(HL-60)/GI50(T. brucei); for MIC Ratio: MIC(HL-60)/MIC(T. brucei)
Experimental: as §1

[3] = tested on: T. brucei bloodstream forms; test: Motility assay with glucose or glycerol as substrate; type: cell-based, Trypanosoma brucei; conditions: 55 mM glucose, compound 200 μM, PBS
Experimental: A culture of bloodstream forms of T. brucei was divided into two equal portions (9 mL) and collected by centrifugation. The cell pellets were resuspended in 1 mL PBS containing 55 mM glucose or 55 mM glycerol. After subsequent centrifugation, the cell pellets were resuspended again in PBS/55 mM glucose and PBS/55 mM glycerol, respectively, and the cell density was adjusted to 2 × 10^6/mL. Then, 100 μL of trypanosomes were mixed with 100 μL PBS/55 mM glucose or 100 μL PBS/55 mM glycerol containing gallic acid alkyl esters at a concentration of 400 μM, giving a final concentration of the esters in the assay of 200 μM. The final concentration of DMSO in each test was 0.9%. The motility of the trypanosomes was examined under the microscope.

[4] = tested on: human myeloid HL-60 cells; test: General cytotoxicity, resazurin viability assay; type: cell-based; conditions: for cytotoxicity against the human cells: HL-60, in words; for GI50 / MIC: Homo sapiens; for GI50: HL-60, 72 h, resazurin, 24 h + 48 h; for MIC: concentration at which all cells were killed, determined microscopically
Experimental: as §1

[5] = tested on: promastigotes of L. major; test: Leishmanicidal activity, resazurin viability assay; type: cell-based, Leishmania major; conditions: for inhibition at 100 µM: read-out: Growth Inhibition (% at 100 μM); for GI50: values in brackets; for leishmanicidal activity: in words
Experimental: as §1

[6] = tested on: T. brucei; conditions: cited from earlier work
[7] = tested on: murine B-lymphoma WEHI-231 cells; set-up: method as in PMID 9466819; conditions: cited from earlier work
[8] = tested on: Vero cells; set-up: method as in PMID 18797755; conditions: cited from earlier work
[9] = tested on: Vero cells; test: Cytotoxicity against Vero cells quoted from the literature; type: cell-based; conditions: for times Vero cells are less sensitive compared with HL-60 cells: GI50(Vero) vs GI50(HL-60); for selectivity: using the Vero cell cytotoxicity as the basis, relative to trypanocidal activity
[10] = 72 h, bloodstream forms clone 427-221a, resazurin, 24 h + 48 h, read-out: T. brucei GI50
[11] = bloodstream forms clone 427-221a
[12] = T. brucei bloodstream forms, GI50 expressed in μg/mL, read-out: GI50
[13] = trypanocidal activity of related phenolic esters

| Compound | GI50 [1, 10] [µM] | MIC [1, 11] [µM] | GI50 Ratio [2] | MIC Ratio [2] | Motility after 5 min [3] | GI50 [4] [µM] | MIC [4] [µM] | MIC ([5]; Leishmania major) [µM] | inhibition at 100 µM ([5]; Leishmania major) [%] | other results |
| --- | --- | --- | --- | --- | --- | --- | --- | --- | --- | --- |
| COC(=O)c1cc(O)c(O)c(O)c1 [Compound 1, Gallic acid methyl ester] | 24.5 ± 4.5 | 100 (≈ 18.4 µg/mL) | >4.1 | >1 | + + + | > 100 | > 100 | > 100 | 2 | cytotoxicity against the human cells [4]: no cytotoxicity |
| O=C(/C=C/c1ccc(O)c(O)c1)OCCc1ccccc1 [caffeic acid phenethyl ester] | – | – | – | – | – | – | – | – | – | GI50 ([6]; trypanocidal activity): 0.046 µM |
| CCCCCCCCCCCCOC(=O)c1cc(O)c(O)c(O)c1 [dodecyl gallate] | – | – | – | – | – | – | – | – | – | GI50 [7]: 1 µM |
| CC(C)CCOC(=O)c1cc(O)c(O)c(O)c1 [Compound 6, Gallic acid isopentyl ester] | ~3 | 10 (≈ 2.4 µg/mL) | – | >10 | + + + | 90.4 ± 21.6 | > 100 | 100 (≈ 24 µg/mL) | 45 | times less active compared with suramin ([1]; T. brucei bloodstream forms): 10–100 times; GI50 [1, 12]: 0.63 to 0.78 µg/mL |
| COCCOC(=O)c1cc(O)c(O)c(O)c1 [Compound 8, Gallic acid 2-methoxyethyl ester] | 5.6 ± 1.3 | 100 (≈ 22.8 µg/mL) | 17.7 | >1 | + + + | 99.2 ± 9.4 | > 100 | 100 (≈ 22.8 µg/mL) | 47 | melting point: 152 to 153 °C |
| CCCCCCCCOC(=O)c1cc(O)c(O)c(O)c1 [octyl gallate] | – | – | – | – | – | – | – | – | – | GI50 [7]: 1.5 µM |
| CC(C)CCOC(=O)C=Cc1ccc(O)c(O)c1 [caffeic acid isopentyl ester, 3,4-dihydroxycinnamic (caffeic) acid isopentyl ester] | – | – | – | – | – | – | – | – | – | GI50 [6, 13]: 1.24 µM |
| CCOC(=O)C=Cc1ccc(O)c(OC)c1 [ferulic acid ethyl ester, 3-methoxy-4-hydroxycinnamic (ferulic) acid ethyl ester] | – | – | – | – | – | – | – | – | – | GI50 [6, 13]: 110 µM |
| CC(C)OC(=O)c1cc(O)c(O)c(O)c1 [Compound 3, Gallic acid isopropyl ester] | 8.4 ± 2.2 | 100 (≈ 21.2 µg/mL) | 10.5 | >1 | + + + | 87.9 ± 8.2 | > 100 | > 100 | 34 | – |
| CCCOC(=O)c1cc(O)c(O)c(O)c1 [Compound 4, Gallic acid propyl ester] | ~3 | 10 (≈ 2.12 µg/mL) | – | >10 | + + + | 82 ± 8.2 | > 100 | 100 (≈ 21.2 µg/mL) | 61 | GI50 [8]: 713 µM; times Vero cells are less sensitive compared with HL-60 cells [9]: 8.7 times; selectivity [9]: > 100; times less active compared with suramin ([1]; T. brucei bloodstream forms): 10–100 times; GI50 [1, 12]: 0.63 to 0.78 µg/mL; GI50 ([5]; Leishmania major): 50.4 µM |
| CCOC(=O)c1cc(O)c(O)c(O)c1 [Compound 2, Gallic acid ethyl ester] | 27.9 ± 2.4 | 100 (≈ 19.8 µg/mL) | >3.6 | >1 | + + + | > 100 | > 100 | > 100 | 0 | cytotoxicity against the human cells [4]: no cytotoxicity; leishmanicidal activity [5]: no leishmanicidal activity |
| Cc1ccc(C(=O)Nc2ccc(S(=O)(=O)O)c3cc(S(=O)(=O)O)cc(S(=O)(=O)O)c23)cc1NC(=O)c1cccc(NC(=O)Nc2cccc(C(=O)Nc3cc(C(=O)Nc4ccc(S(=O)(=O)O)c5cc(S(=O)(=O)O)cc(S(=O)(=O)O)c45)ccc3C)c2)c1 [Suramin, reference compound] | 0.04 | 1 (≈ 1.3 µg/mL) | >2500 | >100 | – | > 100 | > 100 | – | – | times higher GI50 ratio than gallic acid alkyl esters 4, 5, and 6 [2]: 100 times; times higher MIC ratio than gallic acid alkyl esters 4, 5, and 6 [2]: 10 times |
| CCCCOC(=O)c1cc(O)c(O)c(O)c1 [Compound 5, Gallic acid butyl ester] | ~3 | 10 (≈ 2.26 µg/mL) | – | >10 | + + + | 74.8 ± 4.5 | > 100 | 100 (≈ 22.6 µg/mL) | 58 | GI50 [8]: 361 µM; times Vero cells are less sensitive compared with HL-60 cells [9]: 4.8 times; selectivity [9]: > 100; times less active compared with suramin ([1]; T. brucei bloodstream forms): 10–100 times; GI50 [1, 12]: 0.63 to 0.78 µg/mL; GI50 ([5]; Leishmania major): 62.4 µM |
| O=C(O)c1cc(O)c(O)c(O)c1 [gallic acid, 3,4,5-trihydroxybenzoic acid] | – | – | – | – | – | – | – | – | – | GI50 ([6]; trypanocidal activity of the reactant): 14.2 µM |
| CCCCCOC(=O)c1cc(O)c(O)c(O)c1 [Compound 7, Gallic acid pentyl ester] | 32.8 ± 0.9 | 100 (≈ 24 µg/mL) | >3.0 | >1 | + + + | > 100 | > 100 | > 100 | 0 | melting point: 94 to 96 °C; cytotoxicity against the human cells [4]: no cytotoxicity; leishmanicidal activity [5]: no leishmanicidal activity |
| C[C@@H]1[C@H](O)[C@@H](C)/C=C/C=C/C=C/C=C/C=C/C=C/C=C/[C@H](O[C@@H]2O[C@H](C)[C@@H](O)[C@H](N)[C@@H]2O)C[C@@H]2O[C@](O)(C[C@@H](O)C[C@@H](O)[C@H](O)CC[C@@H](O)C[C@@H](O)CC(=O)O[C@H]1C)C[C@H](O)[C@H]2C(=O)O [Amphotericin B, reference compound] | – | – | – | – | – | – | – | 0.1 (≈ 0.0924 µg/mL) | – | inhibition at 10 µM ([5]; Leishmania major, at 10 μM, read-out: Growth Inhibition (%)): 100%; GI50 ([5]; Leishmania major): 0.04 µM |
